Results on 3 compounds are retold here after patent US20200330484A1, “STEROIDAL COMPOUNDS FOR TREATMENT OF MENTAL AND NEUROLOGICAL DISORDERS” (USTAV ORGANICKE CHEMIE A BIOCHEMIE AV CR, V.V.I., priority 2017, published 2020).

The structures appear in SMILES notation. Like-named read-outs stand apart in the source and are kept apart here.

Assay [1] concerns the target T1, hGluN1/hGluN2B(L825V) (Homo sapiens, UniProt Q05586+Q13224, L825V). The note with it: read-out: Glutamate EC50; calculated from ratio of responses to two glutamate concentrations, h fixed at 1.4.
Assay [2] concerns the target T2, hGluN1/hGluN2B(V618G) (Homo sapiens, UniProt Q05586+Q13224, V618G). The note with it: read-out: Glutamate EC50; calculated from ratio of responses to two glutamate concentrations, h fixed at 1.4.
Assay [3] addresses T3, hGluN1/hGluN2B(G820A) (Homo sapiens, UniProt Q05586+Q13224, G820A). The following applies: read-out: Glutamate EC50; calculated from ratio of responses to two glutamate concentrations, h fixed at 1.4.
The target of assay [4] is T4, hGluN1/hGluN2B(V558I) (Homo sapiens, UniProt Q05586+Q13224, V558I). The following applies: read-out: Glutamate EC50; calculated from ratio of responses to two glutamate concentrations, h fixed at 1.4.
Assay [5] addresses T1, hGluN1/hGluN2B(L825V). The experiment in a line: cell-based. The following applies: read-out: Glycine EC50.
Assay [6] has as its target T2, hGluN1/hGluN2B(V618G). The experiment in a line: cell-based. The note with it: read-out: Glycine EC50.
In assay [7] the target is T3, hGluN1/hGluN2B(G820A). The experiment in a line: cell-based. The following applies: read-out: Glycine EC50.
For a further assay, the target named is hGluN1/hGluN2B(E657G) (Homo sapiens, UniProt Q05586+Q13224, E657G). Nature of the assay: cell-based. The following applies: read-out: Glycine EC50.
The target in a further assay is hGluN1/hGluN2B(N615I) (Homo sapiens, UniProt Q05586+Q13224, N615I). The experiment in a line: cell-based. The following applies: read-out: Glycine EC50.
The target in assay [8] is T4, hGluN1/hGluN2B(V558I). The experiment in a line: cell-based. The note with it: read-out: Glycine EC50.
Assay [9] concerns C57BL/6 mice (control) and BALB/c mice. Nature of the assay: Three-chamber social behavior test. The note with it: intraperitoneal, 1 and 10 mg/kg, dissolved in cyclodextrine. It is filed as in vivo. The source says: In in vivo experiments, the effect of the steroid 20-oxo-5β-pregnan-3-ylidene-4′-but-2-enoic acid on C57BL/6 mice (control) and BALB/c mice was compared. BALB/c mice show a higher rate of anxiety behavior and lower socialization, which is considered to be a certain equivalent of autistic manifestations in humans.

For assay [10], the target named is T4, hGluN1/hGluN2B(V558I). The experiment in a line: Whole-cell patch clamp, steroid potentiation of responses tonically activated by low concentration of glutamate. It is filed as cell-based. The note with it: PA-But 15 μmol · l^−1; HEK293T; mean ± SEM. The arrangement: The amino acids are numbered on the basis of the full-length protein, including the signal peptide; expressed in transfected cells; host or cells: HEK293T. As for the experimental part:
(§1) Human embryonic kidney-293T (HEK293T) cells were used for transfection of human genes encoding for NMDA receptor subunits: hGluN1 (GenBank, accession number NP_015566) and hGluN2B (GenBank, accession number NP_000825). Equal amounts ([…]) of DNA encoding for GluN1 and GluN2B were mixed with 0.9 μl Matra-A Reagent (IBA, Gottingen, Germany) and added to confluent HEK293T cells. After trypsinization, the cells were resuspended in Opti-MEM I (ThermoFisher Scientific, Paisley, UK; Cat. #31985062) containing 1% fetal bovine serum supplemented with 15 mmol·l^−1 MgCl2, 1 mmol·l^−1 D,L-2-amino-5-phosphonopentanoic acid (D,L-AP5), and 1 μmol.l^−1 ketamine.
(§2) Mutations in the GluN2B subunit were made using the QuickChange Site-Directed Mutagenesis Kit (Agilent Technologies, Santa Clara, Calif., USA) according to the manufacturer's instructions. Mutated cDNA was transformed into ultra-competent XL1Gold E. coli cells, multiplied, positive clones were selected, and the isolated plasmide DNA was verified by sequencing (SEQme s.r.o., Dobris, Czechia, or GATC Biotech AG, Constance, Germany) All mutations were verified by DNA sequencing. Transfected HEK293T cells were identified by GFP epifluorescence. The amino acids are numbered on the basis of the full-length protein, including the signal peptide.
(§3) Experiments were performed 12-36 h after the end of transfection on cultured HEK293T cells transfected with vectors containing hGluN1/hGluN2B/GFP. Whole-cell voltage clamp current recordings were performed at room temperature (21-25° C.) at a holding potential of −60 mV using a patch-clamp amplifier (Axopatch 200B; Molecular Devices, Sunnyvale, Calif., USA) after a capacitance and series resistance (<10 MΩ) compensation of 80-90%. Data were collected (low-pass filtered at 2 kHz and sampled at 10 kHz) and analyzed using pClamp 10 (Molecular Devices). Patch pipettes (3-5 MΩ) were filled with an intracellular solution (ICS) containing (in mmol·l^−1): 120 gluconic acid, 15 CsCl, 10 BAPTA, 10 HEPES, 3 MgCl2, 1 CaCl2, and 2 ATP-Mg salt (pH-adjusted to 7.2 with CsOH) and extracellular solution (ECS) contained the following (in mmol·l^−1): 160 NaCl, 2.5 KCl, 10 HEPES, 10 glucose, 0.2 EDTA, and 0.7 CaCl2) (pH-adjusted to 7.3 with NaOH). […] The tested steroid solutions were made from freshly prepared 20 mmol·l^−1 20-oxopregn-5en-3β-yl sulfate (PE-S; pregnenolone sulfate), 5 mmol·l^−1 androst-5-en-3β-yl hemisuccinate (AND-hSuc), or 10 mmol·l^−1 20-oxo-5β-pregnan-3-yliden-4′-but-2-enoic acid stock in dimethyl sulfoxide (DMSO). The final dilution to ECS was made at 50° C. and followed by 1 min sonication (SONOREX DIGITEC DT 100/H, BADELIN electronic, Berlin, Germany) The same concentration of DMSO was added to all extracellular solutions. Control and test solution applications were made with a microprocessor-controlled multibarrel fast-perfusion system. The solution exchange rate was ˜15 ms. The following mutations of the gene encoding for hGluN2B subunit (GRIN2B) were tested: P553L; V558I; W607C; N615I; V618G; S628F; E657G; G820E; G820A; M824R; L825V. These mutations are located in the preM1, M2, M3, and M4 transmembrane domains of the receptor (FIG. 1).
On the technique in general: In patch-clamp work, channel activity is measured electrically.

For assay [11], the target named is T3, hGluN1/hGluN2B(G820A). Described as above. It is filed as cell-based. The arrangement: The amino acids are numbered on the basis of the full-length protein, including the signal peptide; expressed in transfected cells; host or cells: HEK293T. The note with it: PA-But 15 μmol · l^−1; HEK293T; mean ± SEM. On the procedure: as §1, §2, §3
Assay [12] deals with T1, hGluN1/hGluN2B(L825V). The description is as above. It is filed as cell-based. The arrangement: expressed in transfected cells; host or cells: HEK293T. The note with it: PA-But 15 μmol · l^−1; HEK293T; mean ± SEM. On the procedure: as §1, §2, §3
Assay [13] has as its target T2, hGluN1/hGluN2B(V618G). The description is as above. It is filed as cell-based. The arrangement: expressed in transfected cells; host or cells: HEK293T. The following applies: PA-But 15 μmol · l^−1; HEK293T; mean ± SEM. As for the experimental part: as §1, §2, §3
Assay [14] addresses T5, hGluN1/hGluN2B (WT) receptors (Homo sapiens, UniProt Q05586+Q13224).
T5 construct: expressed in transfected cells; host or cells: HEK293T
The description is as above. The note with it: PA-But 15 μmol · l^−1; HEK293T; mean ± SEM. It is filed as cell-based. As for the experimental part: as §1, §2, §3

Take `N[C@@H](CCC(=O)O)C(=O)O` [Glutamate, glutamate]: the potency estimated from few doses at hGluN1/hGluN2B(L825V) [1] was 1600 ± 200 nM; on hGluN1/hGluN2B(V618G) [2], 1800 ± 200 nM; on hGluN1/hGluN2B(G820A) [3] it was 1500 ± 300 nM; on hGluN1/hGluN2B(V558I) [4] it was 1600 ± 300 nM.
Regarding `NCC(=O)O` [Glycine, glycine], the potency estimated from few doses was 160 ± 10 nM on hGluN1/hGluN2B(L825V) [5]; 270 ± 20 nM at hGluN1/hGluN2B(V618G) [6]; 200 ± 90 nM on hGluN1/hGluN2B(G820A) [7]; 390 ± 80 nM at hGluN1/hGluN2B(E657G); 310 ± 20 nM at hGluN1/hGluN2B(N615I); 220 ± 50 nM at hGluN1/hGluN2B(V558I) [8].
For the compound `CC(=O)[C@H]1CC[C@H]2[C@@H]3CC[C@@H]4CC(=CC=CC(=O)O)CC[C@]4(C)[C@H]3CC[C@]12C` [PA-But, 20-oxo-5β-pregnan-3-ylidene-4′-but-2-enoic acid], the “Social behavior (interest in the second mouse cage vs an empty cage)” value in assay [9] was “greater interest in the second mouse cage than in an empty cage”. The “Potentiating effect (%)” value was −9 ± 5 (4)^††; % at hGluN1/hGluN2B(V558I) [10]; 7 ± 3 (5)^††; % at hGluN1/hGluN2B(G820A) [11]; 577 ± 78 (10)^††; % on hGluN1/hGluN2B(L825V) [12]; 67 ± 12 (3)^††; % on hGluN1/hGluN2B(V618G) [13]; 212 ± 19 (22) % in assay [14].
